The subject of the experiment is KB cells. As to the kind of experiment: Growth Inhibition Action on KB cell (in vitro). The format is cell-based. The note with it: Homo sapiens, 72 hours incubation, MTT absorbance, final DMSO 0.5%, read-out: IC50 (concentration of 50% growth inhibition) on KB cells. As for the experimental part:
Experiment: Growth Inhibition Action on KB cell (in vitro)
1×10^3 of KB cells/0.1 ml of a cell suspension in MEM medium containing 10% fetal bovine serum was placed in each well of a plate with 96 flat bottom wells, and incubated for 24 hours. This was dissolved in dimethylsulfoxide, and 100 μl of a solution (final concentration of dimethylsulfoxide: 0.5%) of a test compound diluted with the medium was added thereto, followed by incubation for 72 hours. After incubation, 4,5-dimethylthiazol-2-yl-2,5-diphenyltetrazolium bromide reagent (a color reagent) was added, and the mixture was further incubated for 4 hours.
100 μl of the medium (final concentration of dimethylsulfoxide:0.5%) was added as a control, and incubated in a similar manner. After incubation, the medium was removed, and the cells were dissolved in 150 μl of dimethylsulfoxide and the absorbance was determined. The ratio of the absorbance of the group treated with the test compound to that of the control group was determined, and the concentration of 50% growth inhibition (IC50) was calculated.

Each structure is given as a SMILES string. Converted amounts (≈) assume the structure as drawn.

Regarding `CC(C)C[C@@H](O)[C@@]1([C@H]2CC[C@H]3[C@@H]4CC[C@H]5CC(=O)CC[C@]5(C)[C@H]4C[C@@H](O)[C@]23C)CO1` [Compound (12a)], the IC50 was found to be 0.0965 µg/mL (≈ 0.231 µM).

Source of the values: US5712263A, “Steroid derivatives” (Taisho Pharmaceutical Co., Ltd., priority 1993, dated 1998).
